Measurements as given in article PMC9141032 (International Journal of Molecular Sciences, 2022).
≈ marks a conversion by molar mass, not a printed value. Where “and” joins values, the source holds several entries; their conditions need not be identical. Equal values may be shown once.

Columns and labels:
[1] = In vivo pharmacokinetics in plasma; design: species or system mouse
Experimental: (§1) After treatment, mice were euthanized, and the plasma and brain were collected.
(§2) Male CD1 mice were supplied by the Laboratory Animal Service of the University of Granada (Granada, Spain) and housed in the Animal Facilities of the Center of Biomedical Investigation of the University of Granada. […] Calculations were performed using noncompartmental analysis of plasma data after intraperitoneal injection by means of PK Solver 2.0.
(§3) Basic PK parameters were calculated.

[2] = In vivo pharmacokinetics in brain; settings: male, CD1, mouse, ip, mice, 10 mg/kg intraperitoneal
Experimental: as §1, §2, §3

[3] = system: mice; assay: Toxicity observation during the PK study; type: in vivo, mouse; settings: single dose 10 mg/kg intraperitoneally
Experimental: Thus, two-month-old mice were treated with a single dose of 10 mg/kg intraperitoneally in ten groups (n = 3), for consecutive times: 0, 5, 15, 30 min and 1, 2, 4, 6, 8, 24 h. After treatment, mice were euthanized, and the plasma and brain were collected.

[4] = system: culture cells; design: method as in ref 32, 33 = [32]; 32. Escolano C. Pallás M. Griñán-Ferré C. Abás S. Callado L.-F. García-Sevilla J.A. Synthetic I 2 Imidazoline Receptor Ligands for Prevention or Treatment of Human Brain Disorders Patent WO 2019/12185 || [33]; PMID 32150414; doi:10.1021/acs.jmedchem.9b02080; 33. Abás S. Rodríguez-Arévalo S. Bagán A. Griñán-Ferré C. Vasilopoulou F. Brocos-Mosquera I. Muguruza C. Pérez B. Molins E. Luque F.J. Bicyclic α-Iminophosphonates as High Affinity Imidazoline I 2 Rec; settings: plethora of culture cells; cited from earlier work
[5] = design: method as in ref 33 = [33]; PMID 32150414; doi:10.1021/acs.jmedchem.9b02080; 33. Abás S. Rodríguez-Arévalo S. Bagán A. Griñán-Ferré C. Vasilopoulou F. Brocos-Mosquera I. Muguruza C. Pérez B. Molins E. Luque F.J. Bicyclic α-Iminophosphonates as High Affinity Imidazoline I 2 Rec; settings: 1% DMSO and 99% PBS buffer; cited from earlier work
[6] = design: method as in ref 33 = [33]; PMID 32150414; doi:10.1021/acs.jmedchem.9b02080; 33. Abás S. Rodríguez-Arévalo S. Bagán A. Griñán-Ferré C. Vasilopoulou F. Brocos-Mosquera I. Muguruza C. Pérez B. Molins E. Luque F.J. Bicyclic α-Iminophosphonates as High Affinity Imidazoline I 2 Rec; settings: previous studies, cited from earlier work
[7] = system: SAMP8 murine model; settings: cited from earlier work
[8] = system: 5xFAD murine model; design: method as in ref 32, 33 = [32]; 32. Escolano C. Pallás M. Griñán-Ferré C. Abás S. Callado L.-F. García-Sevilla J.A. Synthetic I 2 Imidazoline Receptor Ligands for Prevention or Treatment of Human Brain Disorders Patent WO 2019/12185 || [33]; PMID 32150414; doi:10.1021/acs.jmedchem.9b02080; 33. Abás S. Rodríguez-Arévalo S. Bagán A. Griñán-Ferré C. Vasilopoulou F. Brocos-Mosquera I. Muguruza C. Pérez B. Molins E. Luque F.J. Bicyclic α-Iminophosphonates as High Affinity Imidazoline I 2 Rec; settings: 5 mg/kg in drinking water, 4 weeks; cited from earlier work
[9] = Chemical stability in buffers at pH 2, 5 and 7.4
[10] = system: SH-SY5Y cells; assay: Protection of SH-SY5Y cells from 6-OHDA-induced death (MTT); settings: 6-OHDA 25 μM 16 h
[11] = system: primary astrocytes; assay: Nitrite production (Griess) in LPS-treated primary astrocytes; settings: 1 μM 1 h, then LPS 10 μg/mL 24 h
[12] = male, CD1, mouse, ip, plasma, mice, 10 mg/kg intraperitoneal
[13] = plasma, mice, 10 mg/kg intraperitoneal

`CCOP(=O)(OCC)[C@]1(c2ccccc2)N=C[C@H]2C(=O)N(c3ccc(F)c(Cl)c3)C(=O)[C@H]21` (racemic) [B06, diethyl (1RS,3aSR,6aSR)-5-(3-chloro-4-fluorophenyl)-4,6-dioxo-1-phenyl-1,3a,4,5,6,6a-hexahydropyrrolo[3,4-c]pyrrole-1-phosphonate] showed an AUC(0-inf) [1, 12] of 3050 ng·h/mL, a Tmax [1, 12] of 0.25 h and a Cmax ([1]; male, CD1, mouse, ip, plasma, mice, 10 mg/kg intraperitoneal, single dose) of 950 ± 624 ng/mL. The AUC(0-t) ([1]; male, CD1, mouse, ip, plasma, mice, 10 mg/kg intraperitoneal, read-out: AUC0–1440 (converted)) was 2950 ng·h/mL, the half-life ([1]; male, CD1, mouse, plasma, ip, 10 mg/kg, mice, 10 mg/kg intraperitoneal) was 5.21 h and the “Cl (plasma clearance)” value [1, 13] was 0.054 ± 0.011 (mg/kg)/(μg/mL). The “Vz (volume of distribution)” value [1, 13] was 24.56 ± 4.74 (mg/kg)/(μg/mL), the t1/2 ([1]; plasma, mice, 10 mg/kg intraperitoneal, 10 mg/kg) was 5.2135 h and the “maximum mean concentration in plasma as % of the drug administered” value ([1]; single dose intraperitoneally) was at most 1%. The AUC(0-inf) ([2]; in vivo) was 3310 ng·h/mL, the Cmax ([2]; in vivo) was 128 ± 66 ng/mL and the Tmax ([2]; in vivo) was 0.25 h. For the same compound, the AUC(0-t) ([2]; in vivo, read-out: AUC0–480 (converted)) was 2320 ng·h/mL, the half-life [2] was 4.28 h and the “toxicity in organs or tissues, de visu observation after euthanasia” value [3] was “no toxicity in organs or tissues”. For the same compound, the “toxicity in the animals” value ([3]; up to 24 h) was “not toxicity in any of the animals”, the cytotoxicity [4] was “devoid of cytotoxicity” and the solubility [5] was 92 µM (≈ 44.1 µg/mL). For the same compound, the “mice microsomal percentage remanent” value ([6]; 60 min) was 65.08%, the “t ½ in mice microsomes” value [6] was 1.529 h and the “effect on cognition and behaviour” value [7] was “improving cognition and ameliorating anxiety-like behaviour”. For the same compound, the effect on cognition [8] was “improving cognition and ameliorating the neurodegenerative condition”, the “% B06 Remaining” value ([9]; pH 2, 37 °C, 0 min) was 100 ± 8.84% and the “% B06 Remaining” value ([9]; pH 2, 37 °C, 5 min) was 104 ± 9.81%. For the same compound, the “% B06 Remaining” value ([9]; pH 2, 37 °C, 15 min) was 98 ± 11.30%, the “% B06 Remaining” value ([9]; pH 2, 37 °C, 30 min) was 106 ± 9.97% and the “% B06 Remaining” value ([9]; pH 2, 37 °C, 60 min) was 112 ± 11.2%. The “% B06 Remaining” value ([9]; pH 2, 37 °C, 120 min) was 96 ± 13.6%, the “chemical stability” value ([9]; pH 2, up to 120 min) was “stable at pH 2” and the “chemical stability” value ([9]; pH 5) was “stable up to 1 h”. For the same compound, the “% B06 Remaining” value ([9]; pH 5, 37 °C, 0 min) was 100 ± 3.3%, the “% B06 Remaining” value ([9]; pH 5, 37 °C, 5 min) was 97 ± 6.5% and the “% B06 Remaining” value ([9]; pH 5, 37 °C, 15 min) was 100 ± 3.9%. For the same compound, the “% B06 Remaining” value ([9]; pH 5, 37 °C, 30 min) was 87 ± 11.3%, the “% B06 Remaining” value ([9]; pH 5, 37 °C, 60 min) was 98 ± 10.1% and the “% B06 Remaining” value ([9]; pH 5, 37 °C, 120 min) was 75 ± 8.5%. The “% of the compound that suffered structural changes” value ([9]; pH 5, between 1 h and 2 h) was 25%, the “% B06 Remaining” value ([9]; pH 7.4, 37 °C, 0 min) was 100 ± 2.9% and the “% B06 Remaining” value ([9]; pH 7.4, 37 °C, 15 min) was 77 ± 3.8%. For the same compound, the “% B06 Remaining” value ([9]; pH 7.4, 37 °C, 30 min) was 75% and 75 ± 5.6%, the “% B06 Remaining” value ([9]; pH 7.4, 37 °C, 60 min) was 53 ± 6.4% and the “% B06 Remaining” value ([9]; pH 7.4, 37 °C, 120 min) was 19% and 19 ± 1.9%. For the same compound, the “% of the compound transformed” value ([9]; pH 7.4, 15 min) was 25%, the “protection from 6-OHDA-induced cell death” value ([10]; 1 μM, 1 h pre-treatment) was “significantly rescued human dopaminergic cells from 6-OHDA-induced apoptosis” and the “lowest concentration at which the most beneficial effect was obtained” value ([10]; dose-response, MTT) was 1 µM. The “effect on nitrite production” value [11] was “significant decrease in nitrite production”.
